# Experimental data as given in ChEMBL document CHEMBL3885881, “DrugMatrix”.
# Species on record: Rattus norvegicus
# Assay: DrugMatrix - Regimen: Daily Repeat
# Type: toxicity, organism-based, Sprague-Dawley
# Design: regimen Daily Repeat, gender Male, age 6-8 weeks
# Conditions: in vivo, po, route oral GAVAGE, vehicle 100 % WATER; for ABSOLUTE BASOPHIL / ABSOLUTE EOSINOPHIL / ABSOLUTE LYMPHOCYTE / ABSOLUTE MONOCYTE / ABSOLUTE SEGMENTED NEUTROPHIL / BASOPHIL / EOSINOPHIL / ERYTHROCYTE COUNT / HEMATOCRIT / HEMOGLOBIN / LEUKOCYTE COUNT / LYMPHOCYTE / MEAN CORPUSCULAR HEMOGLOBIN / MEAN CORPUSCULAR HEMOGLOBIN CONCENTRATION / MEAN CORPUSCULAR VOLUME / MONOCYTE / NEUTROPHIL / NUCLEATED RED BLOOD CELLS / PLATELET COUNT: tissue Blood; for ALANINE AMINOTRANSFERASE / ALBUMIN / ALKALINE PHOSPHATASE / ASPARTATE AMINOTRANSFERASE / BLOOD UREA NITROGEN / CARBON DIOXIDE / CHLORIDE / CHOLESTEROL / CREATINE PHOSPHOKINASE / CREATININE / GLUCOSE / LACTATE DEHYDROGENASE / LIPASE / PHOSPHORUS / POTASSIUM / SODIUM / TOTAL BILIRUBIN / TOTAL PROTEIN / URIC ACID: tissue Plasma
# [1] = 0 mg/kg, 72 h, dose level Control, time 3 day
# [2] = 0 mg/kg, 120 h, dose level Control, time 5 day
# [3] = 60 mg/kg, 72 h, dose level Low, time 3 day
# [4] = 60 mg/kg, 120 h, dose level Low, time 5 day
smiles,measurement,setting,value
ClC(Cl)Cl [CHLOROFORM],ABSOLUTE BASOPHIL,[1],0 CELLS/uL
same,ABSOLUTE EOSINOPHIL,[1],86.33 CELLS/uL
same,ABSOLUTE LYMPHOCYTE,[1],12090.17 CELLS/uL
same,ABSOLUTE MONOCYTE,[1],166.67 CELLS/uL
same,ABSOLUTE SEGMENTED NEUTROPHIL,[1],1090.17 CELLS/uL
same,BASOPHIL,[1],0%
same,EOSINOPHIL,[1],0.67%
same,ERYTHROCYTE COUNT,[1],5.57 x10E6/uL
same,HEMATOCRIT,[1],35.33%
same,HEMOGLOBIN,[1],13.83 G/DL
same,LEUKOCYTE COUNT,[1],13.43 x10E3/uL
same,LYMPHOCYTE,[1],89.83%
same,MEAN CORPUSCULAR HEMOGLOBIN,[1],24.88 pg
same,MEAN CORPUSCULAR HEMOGLOBIN CONCENTRATION,[1],39.15 G/DL
same,MEAN CORPUSCULAR VOLUME,[1],63.52 fL
same,MONOCYTE,[1],1.17%
same,NEUTROPHIL,[1],8.33%
same,NUCLEATED RED BLOOD CELLS,[1],0 /100WBC
same,PLATELET COUNT,[1],1181.33 x10E3/uL
same,ALANINE AMINOTRANSFERASE,[1],48.33 u/L
same,ALBUMIN,[1],4.1 G/DL
same,ALKALINE PHOSPHATASE,[1],395 u/L
same,ASPARTATE AMINOTRANSFERASE,[1],81.83 u/L
same,BLOOD UREA NITROGEN,[1],15.83 mg/dL
same,CARBON DIOXIDE,[1],24.17 mmol/L
same,CHLORIDE,[1],103.83 MEQ/L
same,CHOLESTEROL,[1],63.67 mg/dL
same,CREATINE PHOSPHOKINASE,[1],372.83 u/L
same,CREATININE,[1],0.18 mg/dL
same,GLUCOSE,[1],173.83 mg/dL
same,LACTATE DEHYDROGENASE,[1],188.33 u/L
same,LIPASE,[1],9.5 u/L
same,PHOSPHORUS,[1],11.95 mg/dL
same,POTASSIUM,[1],5.99 MEQ/L
same,SODIUM,[1],144.43 MEQ/L
same,TOTAL BILIRUBIN,[1],0.15 mg/dL
same,TOTAL PROTEIN,[1],5.95 G/DL
same,URIC ACID,[1],1.82 mg/dL
same,ABSOLUTE BASOPHIL,[2],0 CELLS/uL
same,ABSOLUTE EOSINOPHIL,[2],26.67 CELLS/uL
same,ABSOLUTE LYMPHOCYTE,[2],7583.83 CELLS/uL
same,ABSOLUTE MONOCYTE,[2],131.33 CELLS/uL
same,ABSOLUTE SEGMENTED NEUTROPHIL,[2],674.83 CELLS/uL
same,BASOPHIL,[2],0%
same,EOSINOPHIL,[2],0.33%
same,ERYTHROCYTE COUNT,[2],5.78 x10E6/uL
same,HEMATOCRIT,[2],36.48%
same,HEMOGLOBIN,[2],14.03 G/DL
same,LEUKOCYTE COUNT,[2],8.42 x10E3/uL
same,LYMPHOCYTE,[2],89.83%
same,MEAN CORPUSCULAR HEMOGLOBIN,[2],24.3 pg
same,MEAN CORPUSCULAR HEMOGLOBIN CONCENTRATION,[2],38.52 G/DL
same,MEAN CORPUSCULAR VOLUME,[2],63.15 fL
same,MONOCYTE,[2],1.67%
same,NEUTROPHIL,[2],8.17%
same,NUCLEATED RED BLOOD CELLS,[2],0 /100WBC
same,PLATELET COUNT,[2],1186.67 x10E3/uL
same,ALANINE AMINOTRANSFERASE,[2],50.17 u/L
same,ALBUMIN,[2],4.07 G/DL
same,ALKALINE PHOSPHATASE,[2],367.5 u/L
same,ASPARTATE AMINOTRANSFERASE,[2],81.67 u/L
same,BLOOD UREA NITROGEN,[2],16.17 mg/dL
same,CARBON DIOXIDE,[2],32.33 mmol/L
same,CHLORIDE,[2],101.5 MEQ/L
same,CHOLESTEROL,[2],65.33 mg/dL
same,CREATINE PHOSPHOKINASE,[2],255.33 u/L
same,CREATININE,[2],0.17 mg/dL
same,GLUCOSE,[2],139.33 mg/dL
same,LACTATE DEHYDROGENASE,[2],95 u/L
same,LIPASE,[2],10.5 u/L
same,PHOSPHORUS,[2],10.38 mg/dL
same,POTASSIUM,[2],6.11 MEQ/L
same,SODIUM,[2],145.55 MEQ/L
same,TOTAL BILIRUBIN,[2],0.17 mg/dL
same,TOTAL PROTEIN,[2],5.98 G/DL
same,URIC ACID,[2],0.93 mg/dL
same,ABSOLUTE BASOPHIL,[3],0 CELLS/uL
same,ABSOLUTE EOSINOPHIL,[3],102.33 CELLS/uL
same,ABSOLUTE LYMPHOCYTE,[3],13682.67 CELLS/uL
same,ABSOLUTE MONOCYTE,[3],170.33 CELLS/uL
same,ABSOLUTE SEGMENTED NEUTROPHIL,[3],1778 CELLS/uL
same,BASOPHIL,[3],0%
same,EOSINOPHIL,[3],0.67%
same,ERYTHROCYTE COUNT,[3],5.57 x10E6/uL
same,HEMATOCRIT,[3],35.2%
same,HEMOGLOBIN,[3],13.87 G/DL
same,LEUKOCYTE COUNT,[3],15.73 x10E3/uL
same,LYMPHOCYTE,[3],86.67%
same,MEAN CORPUSCULAR HEMOGLOBIN,[3],24.87 pg
same,MEAN CORPUSCULAR HEMOGLOBIN CONCENTRATION,[3],39.37 G/DL
same,MEAN CORPUSCULAR VOLUME,[3],63.2 fL
same,MONOCYTE,[3],1%
same,NEUTROPHIL,[3],11.67%
same,NUCLEATED RED BLOOD CELLS,[3],0 /100WBC
same,PLATELET COUNT,[3],1237 x10E3/uL
same,ALANINE AMINOTRANSFERASE,[3],53 u/L
same,ALBUMIN,[3],3.97 G/DL
same,ALKALINE PHOSPHATASE,[3],363.67 u/L
same,ASPARTATE AMINOTRANSFERASE,[3],98.67 u/L
same,BLOOD UREA NITROGEN,[3],15.33 mg/dL
same,CARBON DIOXIDE,[3],23.33 mmol/L
same,CHLORIDE,[3],103.33 MEQ/L
same,CHOLESTEROL,[3],70.67 mg/dL
same,CREATINE PHOSPHOKINASE,[3],579.33 u/L
same,CREATININE,[3],0.13 mg/dL
same,GLUCOSE,[3],155.67 mg/dL
same,LACTATE DEHYDROGENASE,[3],507.67 u/L
same,LIPASE,[3],9 u/L
same,PHOSPHORUS,[3],12.8 mg/dL
same,POTASSIUM,[3],5.78 MEQ/L
same,SODIUM,[3],143.9 MEQ/L
same,TOTAL BILIRUBIN,[3],0.2 mg/dL
same,TOTAL PROTEIN,[3],5.67 G/DL
same,URIC ACID,[3],1.83 mg/dL
same,ABSOLUTE BASOPHIL,[4],0 CELLS/uL
same,ABSOLUTE EOSINOPHIL,[4],47.67 CELLS/uL
same,ABSOLUTE LYMPHOCYTE,[4],10405 CELLS/uL
same,ABSOLUTE MONOCYTE,[4],114.67 CELLS/uL
same,ABSOLUTE SEGMENTED NEUTROPHIL,[4],899.33 CELLS/uL
same,BASOPHIL,[4],0%
same,EOSINOPHIL,[4],0.33%
same,ERYTHROCYTE COUNT,[4],6.07 x10E6/uL
same,HEMATOCRIT,[4],37.63%
same,HEMOGLOBIN,[4],14.23 G/DL
same,LEUKOCYTE COUNT,[4],11.47 x10E3/uL
same,LYMPHOCYTE,[4],90%
same,MEAN CORPUSCULAR HEMOGLOBIN,[4],23.5 pg
same,MEAN CORPUSCULAR HEMOGLOBIN CONCENTRATION,[4],37.87 G/DL
same,MEAN CORPUSCULAR VOLUME,[4],62.07 fL
same,MONOCYTE,[4],1%
same,NEUTROPHIL,[4],8.67%
same,NUCLEATED RED BLOOD CELLS,[4],0 /100WBC
same,PLATELET COUNT,[4],1244.67 x10E3/uL
same,ALANINE AMINOTRANSFERASE,[4],54.33 u/L
same,ALBUMIN,[4],4.27 G/DL
same,ALKALINE PHOSPHATASE,[4],299.67 u/L
same,ASPARTATE AMINOTRANSFERASE,[4],84.33 u/L
same,BLOOD UREA NITROGEN,[4],16 mg/dL
same,CARBON DIOXIDE,[4],30.67 mmol/L
same,CHLORIDE,[4],102 MEQ/L
same,CHOLESTEROL,[4],59.67 mg/dL
same,CREATINE PHOSPHOKINASE,[4],401 u/L
same,CREATININE,[4],0.22 mg/dL
same,GLUCOSE,[4],139.33 mg/dL
same,LACTATE DEHYDROGENASE,[4],140 u/L
same,LIPASE,[4],10 u/L
same,PHOSPHORUS,[4],10.83 mg/dL
